Measurements from patent US20130197073A1, “HYPOCHOLESTEROLEMIC, ANTI-INFLAMMATORY AND ANTIEPILEPTIC NEUROPROTECTIVE COMPOUND” (NEURON BIOPHARMA, S.A., priority 2010, published 2013).

Tests used:
[1] = tested on: human neuroblastoma SK-N-MC cells; experiment: Protection against neuronal death induced by oxidative stress (xanthine/xanthine oxidase), WST-1; type: cell-based; conditions: NST0060 at 10 μM; 10 μM xanthine/60 mU/mL xanthine oxidase, 22 hours; protection significant from 1 to 40 μM
Protocol: The assay was performed on human neuroblastoma SK-N-MC cells in culture from the American Type Culture Collection (ATCC), in all cases strict rules of sterility were followed and the manipulation was performed in class II biological safety cabinets following European standard EN 12469. The cells were maintained in the following culture medium: Minimum Essential Medium Eagle (MEM) supplemented with 1 mM sodium pyruvate, 2 mM L-glutamine, 0.1 mM non-essential amino acids, 0.05 mg/ml gentamicin and 10% fetal bovine serum.
The inhibition caused by compound NST0060 with respect to cell death caused by treatment with xanthine/xanthine oxidase which generates oxidative damage (produces free radicals such as hydrogen peroxide, superoxide anion, hydroxyl radical), which triggers cell death, was analyzed. These cells, not exceeding 15 passages, were seeded on 96-well plates treated for adherent cells with a cell concentration of 5×10^4 cells/well; 3 wells of the plate were seeded for each assay condition. […]
The cells were incubated (at 37° C. and 5% CO2) with these treatments for 22 hours, after which time WST-1 reagent (Roche) was added. […] The formazan which is formed can be detected colorimetrically since it has an absorbance of 440 nm. The reading was taken in a plate reader at 440 nm 2 hours after adding the reagent.

caspase 3/7 = experiment: Inhibition of activation of caspase 3/7 in camptothecin cell model of apoptosis; type: cell-based, human; conditions: Homo sapiens, 50 μM CPT 6 hours, read-out: inhibition of caspase 3/7 with respect to camptothecin
Protocol: (§1) The assay was performed on human neuroblastoma SK-N-MC cells in culture, maintained as described in section 2.1.
The induction of apoptosis on the cells in culture was performed with camptothecin (CPT), which triggers the activation of cell apoptosis. Apoptosis was quantified by means of the measurement of the activation of effector caspases, caspase 3 or caspase 7, for which a kit for the fluorometric detection of active caspase 3/7 (Apo-ONE® Homogeneous Caspase-3/7, Promega) was used. Active caspases 3 or 7 of the cells cause the rupture of a substrate, which leads to fluorescence emission, which is read by means of a fluorometer. The effect of the pretreatment of compound NST0060 at 10 and 40 μM on the activation of caspase 3/7 produced by 50 μM of camptothecin (CPT) in the SK-N-MC cells was thus analyzed. These cells, not exceeding 15 passages, were seeded on 96-well plates treated for adherent cells with a cell concentration of 5×10^4 cells/well; 3 wells of the plate were seeded for each assay condition.
After 24 hours of cell incubation (at 37° C. and 5% CO2), the pretreatment with NST0060 at 10 and 40 μM was performed.
The cells were incubated (at 37° C. and 5% CO2) with these treatments for 6 hours, after which cell lysis buffer and the caspase substrate at the concentrations specified by the manufacturer were added; it was incubated at room temperature for 30 minutes and then frozen at −20° C. overnight. Fluorescence was measured the next day (499/521 nm, Exci/Emi).

[2] = tested on: human neuroblastoma SK-N-MC cells; experiment: Inhibition of DNA fragmentation (sub-G1, flow cytometry) in camptothecin cell model of apoptosis; type: cell-based; conditions: pretreatment 24 hours at 10 μM; 50 μM CPT 6 hours
Protocol: as §1
The inhibition caused by compound NST0060 with respect to apoptosis caused by treatment with camptothecin (CPT), which inhibits the topoisomerase I enzyme, prevents DNA duplication and triggers apoptotic cell death. These cells, not exceeding 15 passages, were seeded on 6-well plates treated for adherent cells with a cell concentration of 7×10^5 cells/well; 2 wells of the plate were seeded for each assay condition.
After 24 hours of cell incubation (at 37° C. and 5% CO2), cell pretreatment was performed with 10 and 40 μM of NST0060 for 24 hours; they were subsequently treated with 50 μM CPT for 6 hours. Furthermore, Z-VAD-fmk at 50 μM was used as positive control for inhibition.
After treatment, the cells were collected along with their culture medium and centrifuged at 300×g for 5 minutes. The medium was removed, a washing was performed with PBS and the cells were fixed for 2 minutes with 500 μl of 70% ethanol at −20° C. […] After this time they were analyzed by flow cytometry, comparing the fluorescence of propidium iodide with respect to the amount of DNA. The percentage of apoptosis was measured on the sub-G1 region of each of the conditions.

[3] = tested on: human hepatocarcinoma line HepG2; experiment: Intracellular total cholesterol levels in human hepatic cell line; type: cell-based; conditions: HepG2, active form, 20 hours in the absence of FBS
Protocol: To that end an assay was conducted which had the purpose of determining if compound NST0060 in its active form was capable of modifying total cholesterol levels in the human hepatocarcinoma line HepG2. […] To carry out this assay, the compounds were prepared at 10 mM in ultrapure water and were activated by means of 0.1 N NaOH for 12 hours at 4° C. The compounds were stored at −20° C. until they were used.
The HepG2 line was obtained from the American Type Culture Collection (ATCC). The cells maintained in passage were seeded in 96-well plates (4×10^4 cells/well) in MEM supplemented with 10% FBS, 2 mM L-glutamine, 1 mM sodium pyruvate, 0.1 mM non-essential amino acids and 0.05 mg/mL gentamicin. After 24 hours of the seeding, the cells were deprived of FBS for 8 hours. The cells were then incubated with the treatments at various concentrations for 20 hours. After the incubation period, the cells were washed with PBS and lysed with a phosphate buffer with 0.5% Triton X-100. The lysis was completed by means of a double freezing-thawing.
The total cholesterol was quantified by means of enzymatic and fluorometric techniques. […] The fluorescence intensity was determined at 530 nm of excitation and 580 nm of emission by means of a fluorometer. The results were standardized by amount of protein, which was determined by means of the BCA technique.

## CCCC(CCC)C(=O)O[C@H]1C[C@@H](C)C=C2C=C[C@H](C)[C@H](CC[C@@H]3C[C@@H](O)CC(=O)O3)[C@H]21 [NST0060, 2-propylpentanoic acid (1S,3R,7S,8S,8aR)-1,2,3,7,8,8a-hexahydro-3,7-dimethyl-8-[2-[(2R,4R)-tetrahydro-4-hydroxy-6-oxo-2H-pyran-2-yl]ethyl]-1-naphthalenyl ester]
[1]
  maximum protection against cell death caused by XXO: 80%
Caspase 3/7; pretreatment 24 h at 10 μM
  inhibition at 10 µM: 58%
Caspase 3/7; pretreatment 24 h at 40 μM
  inhibition at 40 µM: 32%
[2]
  maximum protection against apoptosis (DNA fragmentation) caused by CPT: 41%
[3]
  reduction in total cholesterol in the cells: reductions in total cholesterol in the cells similar to those exerted by simvastatin
